Measurements from patent US20240245079A1, “METHOD FOR MANUFACTURING HEATED FOOD” (Nisshin Seifun Welna Inc., priority 2021, published 2024).

Assay: Method for measuring solubility of metal salt
Conditions: 100 g water at pH 7, 20° C., shaken 1 hour
Procedure: In a flask are placed 100 g of water at pH 7 and 2 g of a metal salt being tested. The flask is tightly closed and shaken in a thermostat at 20° C. for 1 hour. The contents of the flask are filtered to collect the undissolved metal salt, which is dried and weighed. The weight (g) of the undissolved metal salt is subtracted from the original weight (2 g) to obtain the solubility of the metal salt.

For [O]=[Mg] [Magnesium oxide], which Solubility is on record?
Its Solubility is 0.0086 g/100 g water.
